How the values were obtained:
large crabgrass = experiment: Test C pre-/postemergence herbicide test; format: in vivo, Digitaria sanguinalis
Summary of the method: (§1)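 Visual injury scores run from 0 (no effect) to 100 (complete control), assessed relative to untreated controls 12 to 14 days after treatment in the greenhouse. Chemicals were formulated in a non-phytotoxic solvent mixture with surfactant and applied to soil after planting or to emerged plants at the 1- to 4-leaf stage.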

common ragweed = experiment: Test C pre-/postemergence herbicide test; format: in vivo, Ambrosia elatior; set-up: key to Plant response rating, Ragweed: 0 = no effect, 100 = complete control
Summary of the method: as §1

kochia = experiment: Test C pre-/postemergence herbicide test; format: in vivo, Kochia scoparia
Summary of the method: as §1

[1] = test system: common (oilseed) sunflower; experiment: Test C pre-/postemergence herbicide test; format: in vivo, Helianthus annuus
Summary of the method: as §1

corn = experiment: Test C pre-/postemergence herbicide test; format: in vivo, Zea mays
Summary of the method: as §1

giant foxtail = experiment: Test C pre-/postemergence herbicide test; format: in vivo, Setaria faberi
Summary of the method: as §1

barnyardgrass = experiment: Test A pre-/postemergence herbicide test; format: in vivo, Echinochloa crus-galli
Summary of the method: (§2)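 Pre: seeded sandy loam, directed soil spray, compound in non-phytotoxic solvent + surfactant. Post: 1–2-leaf plants (2–10 cm), sprayed to runoff. Greenhouse ~10 d; visual injury vs untreated, 0–100 scale.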

morningglory [2] = experiment: Test C pre-/postemergence herbicide test; format: in vivo, Ipomoea coccinea; set-up: key to Plant response rating, Morningglory: 0 = no effect, 100 = complete control
Summary of the method: as §1

bermudagrass = experiment: Test C pre-/postemergence herbicide test; format: in vivo, Cynodon dactylon
Summary of the method: as §1

morningglory [3] = experiment: Test A pre-/postemergence herbicide test; format: in vivo, Ipomoea spp.
Summary of the method: as §2

[4] = 62 g ai/ha, preemergence, scale 0 to 100
[5] = 125 g ai/ha, scale 0 (no effect) to 100 (complete control), visual, 12 to 14 days, preemergence
[6] = 250 g ai/ha, scale 0-100, preemergence
[7] = Preemergence, 500 g ai/ha, scale 0 to 100, 0 no effect, 100 complete control
[8] = Postemergence, 500 g ai/ha, 0 to 100 scale, 0 no effect, 100 complete control
[9] = Postemergence, 2000 g ai/ha, 0 to 100 scale, 0 no effect, 100 complete control
[10] = Preemergence, 2000 g ai/ha, visual rating, 0 to 100 scale (0 no effect, 100 complete control)
[11] = preemergence, 500 g ai/ha, visual injury, 0 to 100 scale (0 no effect, 100 complete control)
[12] = 31 g ai/ha, preemergence, scale 0 to 100
[13] = 250 g ai/ha, scale 0 to 100 (0 no effect, 100 complete control), visual, 12 to 14 days, preemergence
[14] = Postemergence, 250 g ai/ha, scale 0 to 100, 0 no effect, 100 complete control
[15] = postemergence, 125 g ai/ha, scale 0 to 100
[16] = postemergence, 62 g ai/ha, scale 0 to 100
[17] = Preemergence, 500 g ai/ha, visual rating, 0 to 100 scale (0 no effect, 100 complete control)
[18] = Preemergence, 2000 g ai/ha, 0 to 100 scale, 0 no effect, 100 complete control

## C=CCNC(=O)c1cccc(NC(=O)c2sc(C(C)(C)C)nc2C)c1 [Compound 202]
Large crabgrass; [4]
  Plant response rating, Crabgrass, Large: 80
Large crabgrass; [5]
  Plant response rating, Crabgrass, Large: 95
Large crabgrass; [6]
  Plant response rating, Crabgrass, Large: 95
Large crabgrass; [7]
  Crabgrass, Large plant response rating: 95
Common ragweed; [4]
  Plant response rating, Ragweed: 0
Common ragweed; [5]
  Plant response rating, Ragweed: 80
Common ragweed; [6]
  Plant response rating, Ragweed: 95
Common ragweed; [7]
  Ragweed plant response rating: 95
kochia; [4]
  Plant response rating, Kochia: 60
kochia; [5]
  Plant response rating, Kochia: 85
kochia; [6]
  Plant response rating, Kochia: 85
kochia; [7]
  Kochia plant response rating: 95
[1]; [4]
  Plant response rating, Sunflower: 0
[1]; [5]
  Plant response rating, Sunflower: 0
[1]; [6]
  Plant response rating, Sunflower: 10
[1]; [7]
  Sunflower plant response rating: 10
corn; [4]
  Plant response rating, Corn: 0
corn; [5]
  Plant response rating, Corn: 0
corn; [6]
  Plant response rating, Corn: 0
corn; [7]
  Corn plant response rating: 10
Giant foxtail; [4]
  Plant response rating, Foxtail, Giant: 0
Giant foxtail; [5]
  Plant response rating, Foxtail, Giant: 40
Giant foxtail; [6]
  Plant response rating, Foxtail, Giant: 80
Giant foxtail; [7]
  Foxtail, Giant plant response rating: 100
barnyardgrass; [8]
  Barnyardgrass plant response rating: 45
barnyardgrass; [9]
  Plant response rating, Barnyardgrass: 80
barnyardgrass; [10]
  Barnyardgrass plant response rating: 80
barnyardgrass; [11]
  Barnyardgrass plant response rating: 45
Morningglory [2]; [4]
  Plant response rating, Morningglory: 0
Morningglory [2]; [5]
  Plant response rating, Morningglory: 55
Morningglory [2]; [6]
  Plant response rating, Morningglory: 80
Morningglory [2]; [7]
  Morningglory plant response rating: 85
bermudagrass; 62 g ai/ha, preemergence, scale 0 to 100, 0 no effect, 100 complete control
  Plant response rating, Bermudagrass: 20
bermudagrass; [5]
  Plant response rating, Bermudagrass: 85
bermudagrass; [6]
  Plant response rating, Bermudagrass: 95
bermudagrass; [7]
  Bermudagrass plant response rating: 100
Morningglory [3]; [8]
  Morningglory plant response rating: 75
Morningglory [3]; [9]
  Plant response rating, Morningglory: 75
Morningglory [3]; [10]
  Morningglory plant response rating: 70
Morningglory [3]; [11]
  Morningglory plant response rating: 15

## CCn1nc(C(C)(C)C)cc1C(=O)Nc1ccc(F)c(C(=O)NCCF)c1 [Compound 60]
Large crabgrass; [12]
  Plant response rating, Crabgrass, Large: 80
Large crabgrass; 62 g ai/ha, preemergence
  Plant response rating (0 = no effect, 100 = complete control), Crabgrass, Large: 90
Large crabgrass; [5]
  Plant response rating, Crabgrass, Large: 90
Large crabgrass; [13]
  Plant response rating, Crabgrass, Large: 95
Large crabgrass; [14]
  Plant response rating, Crabgrass, Large: 5
Large crabgrass; [15]
  Plant response rating, Crabgrass, Large: 0
Large crabgrass; [16]
  Plant response rating, Crabgrass, Large: 0
Common ragweed; [12]
  Plant response rating, Ragweed: 0
Common ragweed; 62 g ai/ha, preemergence
  Plant response rating (0 = no effect, 100 = complete control), Ragweed: 10
Common ragweed; [5]
  Plant response rating, Ragweed: 80
Common ragweed; [13]
  Plant response rating, Ragweed: 95
Common ragweed; [14]
  Plant response rating, Ragweed: 5
Common ragweed; [15]
  Plant response rating, Ragweed: 5
Common ragweed; [16]
  Plant response rating, Ragweed: 0
kochia; [12]
  Plant response rating, Kochia: 80
kochia; 62 g ai/ha, preemergence
  Plant response rating (0 = no effect, 100 = complete control), Kochia: 80
kochia; [5]
  Plant response rating, Kochia: 90
kochia; [13]
  Plant response rating, Kochia: 90
kochia; [14]
  Plant response rating, Kochia: 20
kochia; [15]
  Plant response rating, Kochia: 20
kochia; [16]
  Plant response rating, Kochia: 10
[1]; [12]
  Plant response rating, Sunflower: 0
[1]; 62 g ai/ha, preemergence
  Plant response rating (0 = no effect, 100 = complete control), Sunflower: 0
[1]; [5]
  Plant response rating, Sunflower: 0
[1]; [13]
  Plant response rating, Sunflower: 0
corn; [12]
  Plant response rating, Corn: 0
corn; 62 g ai/ha, preemergence
  Plant response rating (0 = no effect, 100 = complete control), Corn: 0
corn; [5]
  Plant response rating, Corn: 0
corn; [13]
  Plant response rating, Corn: 0
corn; [14]
  Plant response rating, Corn: 0
corn; [15]
  Plant response rating, Corn: 0
corn; [16]
  Plant response rating, Corn: 0
Giant foxtail; [12]
  Plant response rating, Foxtail, Giant: 0
Giant foxtail; 62 g ai/ha, preemergence
  Plant response rating (0 = no effect, 100 = complete control), Foxtail, Giant: 0
Giant foxtail; [5]
  Plant response rating, Foxtail, Giant: 15
Giant foxtail; [13]
  Plant response rating, Foxtail, Giant: 80
Giant foxtail; [14]
  Plant response rating, Foxtail, Giant: 5
Giant foxtail; [15]
  Plant response rating, Foxtail, Giant: 5
Giant foxtail; [16]
  Plant response rating, Foxtail, Giant: 0
barnyardgrass; [8]
  Plant response rating, Barnyardgrass: 35
barnyardgrass; [9]
  Plant response rating, Barnyardgrass: 70
barnyardgrass; [17]
  Barnyardgrass plant response rating: 50
barnyardgrass; [18]
  Barnyardgrass plant response rating: 85
Morningglory [2]; [12]
  Plant response rating, Morningglory: 0
Morningglory [2]; 62 g ai/ha, preemergence
  Plant response rating (0 = no effect, 100 = complete control), Morningglory: 0
Morningglory [2]; [5]
  Plant response rating, Morningglory: 5
Morningglory [2]; [13]
  Plant response rating, Morningglory: 10
Morningglory [2]; [14]
  Plant response rating, Morningglory: 10
Morningglory [2]; [15]
  Plant response rating, Morningglory: 10
Morningglory [2]; [16]
  Plant response rating, Morningglory: 10
bermudagrass; [12]
  Plant response rating, Bermudagrass: 30
bermudagrass; 62 g ai/ha, preemergence
  Plant response rating (0 = no effect, 100 = complete control), Bermudagrass: 80
bermudagrass; [5]
  Plant response rating, Bermudagrass: 100
bermudagrass; [13]
  Plant response rating, Bermudagrass: 100
bermudagrass; Postemergence, 250 g ai/ha, scale 0 to 100
  Bermudagrass plant response rating: 5
bermudagrass; [15]
  Plant response rating, Bermudagrass: 0
bermudagrass; postemergence, 31 g ai/ha, scale 0 to 100
  Plant response rating, Bermudagrass: 0
bermudagrass; [16]
  Plant response rating, Bermudagrass: 0
Morningglory [3]; [8]
  Plant response rating, Morningglory: 10
Morningglory [3]; [9]
  Plant response rating, Morningglory: 20
Morningglory [3]; [17]
  Morningglory plant response rating: 10
Morningglory [3]; [18]
  Morningglory plant response rating: 40
